Assay results reported in patent US20030207813A1, “Retroviral protease inhibitor combinations” (priority 1995, published 2003).
Values after ≈ are worked out from the molar mass of the structure shown.

test system: HIV-1 strain 89-959; assay: Acute infectivity assay in PHA-activated donor lymphocytes, isolate 89-959; format: cell-based; conditions: Human immunodeficiency virus 1, Lymphocyte, Table 3, footnote marks show values of the same experiment, read-out: Virus Isolate (EC50 ng/mL) 89-959
Procedure: Approximately 3×10^7 cells are activated for 48 hours with about 3-5 μg/ml PHA in RPMI continuing 10% fetal bovine serum and IL-2 (10 U/ml). Quantitated virus stocks are added to the activated lymphocyte suspension at a multiplicity of infection of about 0.001-0.01. The cell-virus suspension is incubated at 37° C. for 2 hours to allow virus absorption. The residual virus inoculum is removed by centrifugation and the cells are resuspended in RPMI containing 10% FBS and 10 U/ml IL-2. These infected cells are added to the test-article diluted in complete tissue culture medium from a stock (10 mg/ml) in DMSO in 96 well microtiter plates to give about 5×10^5 cells per well per 200 μl. Infected, untreated cells and cells treated with DMSO alone (0.1%) or either AZT or DDI were used as controls. The cultures were examined for syncytia formation on days 7 and 11 post-infection or the supernants tested for reverse transcriptase activity or p24 antigen.
RF represents the HIV-1 strain HIV-LRF and RFR represents a mixture of resistant strains obtained by selection of RF against the compound of Example 1. RFR comprises a mixture of viral strains having protease genotypes of G48V (14/40 clones); G48V, V82A (18/40 clones); G48V, L90S (2/40 clones); G48V, 154T, V82A (1/40 clones); G48M (1/40 clones); G48V, Q61H (1/40 clones); V13I, G48V (1/40 clones); G48V, F53L, V82A (1/40 clones); and G48V, V82A, C95Y (1/40 clones). RFR2 represents a mixture of resistant strains obtained by cloning RFR by three rounds of growth at limiting dilution. RFR2 comprises a mixture of viral strains having protease genotypes of G48V, V82A (13/15 clones); G17E, G48V, V82A (1/15 clones); and G48V, V82A, N37D, N88D (1/15 clones). RFRR represents a mixture of resistant strains obtained by selection of RF against the compounds of Examples 1 and 2 and then cloning by three rounds of growth at limiting dilution. RFRR comprises a mixture of viral strains having protease genotypes of G48V, 154T, L63P, V82A (7/9 clones); G48V, 154T, L63P, V82A, N88S (1/9 clones); and G48V, 154T, L63P, G73M, V82A (1/9 clones). SF162 represents the HIV-1 strain SF-162 and SF162R represents a mixture of resistant strains obtained by selection of SF162 against the compound of Example 1. SF162R comprises a mixture of viral strains having protease genotypes of M461, F53L, L63P, A71V, N88D (2/3 clones); and M46I, F53L, L63P, A71V, N88D, Q92R (1/3 clones). 89-959 represents the HIV-1 strain 89-959 and 89-959R represents a mixture of resistant strains obtained by selection of 89-959 against the compound of Example 2. 89-959R comprises a mixture of viral strains having protease genotypes of N88S (4/5 clones); and D25N, T26A, D30N, D37N, R41K, G73D, R87K, N88S (1/4 clones). NL4 represents the HIV-1 strain HIV-1NL4-3. NL4(G48V) represents a strain having a synthetically generated site-directed mutation in the protease from glycine to valine at amino acid position number 48. NL4(I84V) represents a strain having a synthetically generated site-directed mutation in the protease from isoleucine to valine at amino acid position number 84. NL4(R8Q,M46I) represents a strain having synthetically generated site-directed mutations in the protease from arginine to glutamine at amino acid position number 8 and methionine to isoleucine at amino acid position number 46. NL4(P22-538) represents a mixture of resistant strains obtained by selection of HIV-1NL4-3 against the compound of Example 10 after 22 passages comprising protease genotypes M46I, L63P, A71V, V82F, I84V (4/10); M46I, L63P, V82F, I84V (3/10); and M46I, A71V, V82F, I84V (3/10). NL4(P37-538) represents resistant strains obtained by selection of HIV-1NL4-3 against the compound of Example 10 after 37 passages comprising protease genotype M46I, L63P, A71V, 184A. NL4(538/524) represents resistant strains obtained by selection of NL4(P22-538) against the compound of Example 5 after 24 passages comprising protease genotype M46I, L63P, A71V, 184A. […]

Compared with `CC(C)CN(C[C@@H](O)[C@H](Cc1ccccc1)NC(=O)[C@H](CC(N)=O)NC(=O)c1ccc2ccccc2n1)C(=O)NC(C)(C)C` (relative stereo) [Example 1, [1S-[1R*(R*),2S*]]-N^1-[3-[[[(1,1-dimethylethyl)amino]carbonyl])2-methylpropyl)amino]-2-hydroxy-1-(phenylmethyl)propyl]-2-[(2-quinolinylcarbonyl)amino]-butanediamide], `CC(C)CCN(C[C@@H](O)[C@H](Cc1ccccc1)NC(=O)[C@H](CC(N)=O)NC(=O)c1ccc2ccccc2n1)C(=O)NC(C)(C)C` (relative stereo) [Example 7, [1S-[1R*(R*),2S*]]-N^1-[3-[[[(1,1-dimethylethyl)amino]carbonyl](3-methylbutyl)amino]-2-hydroxy-1-(phenylmethyl)propyl]-2-[(2-quinolinylcarbonyl)amino]-butanediamide] is 7.4-fold lower in EC50: 96 ng/mL (≈ 0.159 µM) for the first, 13 ng/mL (≈ 0.021 µM) for the second.

First: CC(C)(C)NC(=O)[C@@H]1CC2CCCC[C@@H]2CN1C[C@@H](O)[C@H](Cc1ccccc1)NC(=O)[C@H](CC(N)=O)NC(=O)c1ccc2ccccc2n1 (stereo in doubt) [Example 6, N-tert-Butyl decahydro-2-[2(R)-hydroxy-4-phenyl-3(S)-[[N-(2-quinolylcarbonyl)-L-asparaginyl]amino]butyl]-(4aR,8aS)-isoquinoline-3(S)-carboxamide]
Second: CC(C)CN(C[C@@H](O)[C@H](Cc1ccccc1)NC(=O)[C@H](CC(N)=O)NC(=O)c1ccc2ccccc2n1)S(=O)(=O)NC(C)(C)C [Example 8, N-[3-[N^2-[N^1-(1,1-dimethylethyl)aminosulfonyl]-N^2-(2-methylpropyl)amino]-2R-hydroxy-1S-(phenylmethyl)propyl]-2S-[(2-quinolinylcarbonyl)amino]butanediamide]
The EC50 of the first is 3-fold lower: 4 ng/mL (≈ 0.00596 µM) for the first, 12 ng/mL (≈ 0.0187 µM) for the second.

Going from `CNCC(=O)N[C@H](C(=O)N[C@@H](Cc1ccccc1)[C@H](O)CN(CCC(C)C)C(=O)NC(C)(C)C)C(C)(C)C` [Example 2, (2R,3S)-3-(N-methylaminoacetyl-L-tert-butylglycinyl)amino-1-(N-isoamyl-N-(tert-butylcarbamoyl))amino-4-phenyl-2-butanol] to `CC(C)(C)NC(=O)[C@@H]1CN(Cc2cccnc2)CCN1C[C@@H](O)C[C@@H](Cc1ccccc1)C(=O)N[C@H]1c2ccccc2C[C@H]1O` [Example 5, N-(2(R)-Hydroxy-1(S)-indanyl)-2(R)-phenylmethyl-4(S)-hydroxy-5-(1-(4-(3-pyridylmethyl)-2(S)-N′-(t-butylcarboxamido)-piperazinyl))-pentaneamide], the EC50 falls from 100 ng/mL (≈ 0.187 µM) to 36 ng/mL (≈ 0.0587 µM) (2.8-fold).
